For the first data set, the system named is HeLa cells. Kind of data set: Kinetic imaging of NBD-triazine probe uptake and sequestration, fitted to nested two-compartment transport model. Particulars: median over optimal solutions within 5% of the best fit. Type of data set: cell-based. On the procedure:
In living cells, image data was simultaneously acquired with an automated, high-content, kinetic screening instrument equipped with an environmental chamber (see, e.g., V. C. Abraham, D. L. Taylor and J. R. Haskins, Trends in Biotechnology 22, 15 (2004); herein incorporated by reference in its entirety), as cells were incubated with the fluorescent molecules and after removal of extracellular probe. Data was analyzed off line, using an image analysis algorithm to measure the statistical pixel intensity distribution associated with fluorescence probe sequestration in the perinuclear region (see, e.g., FIG. 21; see also, e.g., G. J. Ding et al., Journal of Biological Chemistry 273, 28897 (1998); herein incorporated by reference in its entirety). Data was parametrized with a nested, two-compartment, transport model (see, e.g., W. E. Evans, J. J. Schentag and W. J. Jusko., Applied Pharmacokinetics: Principles of Therapeutic Drug Monitoring (Lippincott Williams & Wilkins, Vancouver, W.A., 1992); herein incorporated by reference in its entirety), using a statistical link function to relate the kinetic coefficient of variation (CV) of pixel intensities in the images with the concentration of probe in vesicles and cytoplasm. Optimal kinetic parameters fitting the experimental data for each probe to the system described by the two-compartment model and statistical link function were determined using the simulated annealing technique (see, e.g., M. Pincus., Oper. Res. 18, 1225 (1979); herein incorporated by reference in its entirety). The present invention is not limited to a particular mechanism. Indeed, an understanding of the mechanism is not necessary to practice the present invention.
To assess how well the model accounts for all the different kinetic traces acquired, a “PVE” (proportion of variance explained) by the model was calculated. The PVE is one minus the ratio of the sum of squared differences between observed and fitted values to the sum of squared differences between observed values and their mean. PVE values close to one indicate good fit to the nested two-compartment model. The average PVE across the probes was 0.92, with >50% of the probes yielded PVE values […]. The present invention is not limited to a particular mechanism. Indeed, an understanding of the mechanism is not necessary to practice the present invention.
Cell culture. HeLa cells were grown in RPMI+10% FCS in a 5% CO2 atmosphere at 37° C. and plated in 96-well plates at a density of 3000 cells/well 24 hours prior to the start of the experiment.
Kinetic Imaging. For influx experiments, cells on 96-well plates were switched to imaging media consisting of RPMI containing 1.0 mM Bromophenol Blue—a soluble, cell-impermeant chromophore used to suppress excitation and emission of extracellular (background) dye fluorescence-, 10 μM probe and 0.1 μM Hoescht 33258 to label the cell nuclei. Plates were then transferred to a KineticScan instrument (Cellomics, Inc., Pittsburgh, Pa.), which contains an environmentally controlled CO2/temperature/humidity chamber, and data was acquired with a 20× objective lens. Images acquisition began approximately 10 min after dye addition, using the Hoescht channel to acquire nuclear images and FITC channel to acquire the NBD image. Plate-scanning mode was used for scanning, in which the instrument builds time-stacks of images by scanning the plate multiple times, returning to the same site of the plate at every scan. For efflux experiments, dye-containing media was removed from the wells of the plate. The wells were washed twice with fresh RPMI medium, imaging media was added, and image acquisition restarted 7 min after the dye-containing media was removed. The last time points of the influx experiment served as the first time point of the efflux experiment. Plates were scanned for approximately two hours in the influx experiment and six hours for the efflux experiment, with each well imaged on average every 7 minutes. […]
As for `Cc1ccc(CNc2nc(NCCCCCCNc3ccc([N+](=O)[O-])c4nonc34)nc(NC(C)C)n2)cc1` [Compound G2], the “median Pap(cyto) (apparent partition coefficient between extracellular medium and cytosol)” value (“median Pap(cyto)” for short) amounted to 211.16; the “median Pap(ves) (apparent partition coefficient between cytosol and intracellular vesicles, k(ves)in/k(ves)out)” value (“median Pap(ves)” below) amounted to 0.28.
On to `CCCCCCCCNc1nc(NCCCCCCNc2ccc([N+](=O)[O-])c3nonc23)nc(NCc2ccc(C)cc2)n1` [Compound G3], for which the “median Pap(cyto)” value turned out to be 0.95; the “median Pap(ves)” value is reported as 43.97.
The like results for `Cc1ccc(CNc2nc(NCCCCCCNc3ccc([N+](=O)[O-])c4nonc34)nc(NC3CCC(C)CC3)n2)cc1` (centres unmarked) [Compound G4] were, in that order, 23.97 and 4.01.
On to `Cc1ccc(CNc2nc(NCCCCCCNc3ccc([N+](=O)[O-])c4nonc34)nc(NC3CCCCC3C)n2)cc1` (centres unmarked) [Compound G5], for which the “median Pap(cyto)” value turned out to be 57.45; the “median Pap(ves)” value stood at 8.94.
As for `Cc1ccc(CNc2nc(NCCCCCCNc3ccc([N+](=O)[O-])c4nonc34)nc(NCC3CCCCC3)n2)cc1` [Compound G6], the “median Pap(cyto)” value was determined as 35.66; the “median Pap(ves)” value is listed as 10.12.
The like results for `Cc1ccc(CNc2nc(NCCCCCCNc3ccc([N+](=O)[O-])c4nonc34)nc(NC3CCCCC3)n2)cc1` [Compound G7] were, in that order, 6.63 and 29.18.
As for `Cc1ccc(CNc2nc(NCCCCCCNc3ccc([N+](=O)[O-])c4nonc34)nc(NCCC(C)C)n2)cc1` [Compound G8], the “median Pap(cyto)” value was 8.29; the “median Pap(ves)” value turned out to be 24.73.
On to `Cc1ccc(CNc2nc(NCCCCCCNc3ccc([N+](=O)[O-])c4nonc34)nc(NCCc3ccccn3)n2)cc1` [Compound G9], for which the “median Pap(cyto)” value was 267.03; the “median Pap(ves)” value turned out to be 0.20.
Take `CCCCNc1nc(NCCCCCCNc2ccc([N+](=O)[O-])c3nonc23)nc(NCc2cccc(OC)c2OC)n1` [Compound H1]: the “median Pap(cyto)” value is 161.46; the “median Pap(ves)” value worked out at 0.42.
The like results for `COc1cccc(CNc2nc(NCCCCCCNc3ccc([N+](=O)[O-])c4nonc34)nc(NC(C)C)n2)c1OC` [Compound H2] were, in that order, 10.30 and 9.91.
The corresponding values for `CCCCCCCCNc1nc(NCCCCCCNc2ccc([N+](=O)[O-])c3nonc23)nc(NCc2cccc(OC)c2OC)n1` [Compound H3] are 7.51 and 14.91.
On to `COc1cccc(CNc2nc(NCCCCCCNc3ccc([N+](=O)[O-])c4nonc34)nc(NC3CCCCC3C)n2)c1OC` (centres unmarked) [Compound H5], for which the “median Pap(cyto)” value came out at 5.12; the “median Pap(ves)” value is 16.80.
`COc1cccc(CNc2nc(NCCCCCCNc3ccc([N+](=O)[O-])c4nonc34)nc(NCC3CCCCC3)n2)c1OC` [Compound H6]: the “median Pap(cyto)” value worked out at 8.77; the “median Pap(ves)” value is 22.55.
On to `COc1cccc(CNc2nc(NCCCCCCNc3ccc([N+](=O)[O-])c4nonc34)nc(NCCC(C)C)n2)c1OC` [Compound H8], for which the “median Pap(cyto)” value amounted to 12.95; the “median Pap(ves)” value was found to be 15.10.

Test system in a further data set: not listed separately
The data set can be described thus: Additive decomposition of peak excitation and emission wavelengths (model coefficients of A and B groups). The settings on record: influence of A group on peak emission wavelength, A group 1 as baseline. The source says:
The chemical structure of the styryl library is illustrated in FIG. 3. […] Initial analysis focused on measurements of peak emission and excitation wavelength obtained for all styryl products showing a single, localized peak (there were 256 such compounds for emission wavelength, and 193 compounds for excitation wavelength). […] The wavelength for the styryl compound formed by joining A group i with B group j is denoted as λij (or more specifically, λij^ex for excitation wavelength and λij^em for emission wavelength). The additive model λij=ai+βj+εij was fit to the data using least squares yielding parameters αi^ex, αi^em, βj^ex, and βj^em that quantify the influence of each A and B group on the spectrum of the styryl product. […] (FIGS. 8A-8B). […] The predictions were made ignoring interactions between the two functional moieties in the styryl compound. The predicted values were obtained without bias, by holding out the data point to be predicted when training the model.
In preferred embodiments, using the cross-validation approach disclosed herein, each compound was held out in sequence, the model was trained using the remaining compounds, then the wavelength value for the held-out compound was predicted based on the resulting fitted model. This process produced correlations between measured and predicted values of ρ^em=0.78 (emission) and ρ^ex=0.69 (excitation).
Based on this analysis, the contribution of the A and B functional groups to the fluorescence of the styryl product is quantified using the fitted coefficients αi^ex, βj^ex, […], and βj^em. Since these coefficients are on a scale without origin, in some embodiments, the invention uses the first A group and B group as a baseline, so […], β1^ex=0, and so on. Table 3 contains the model coefficients of all A and B groups for peak excitation and emission wavelength.
Greater values of αi^ex, αi^em, βj^ex, and βj^em indicate greater peak wavelength. Greater values of αi^mito and […] indicate stronger mitochondrial localization. A groups 40 and 41 were not screened for localization. A groups 2, 29, and 33 only formed fluorescent products with a single B group, so were not included in the spectral analysis.
In some embodiments, the wavelength values for peak excitation and emission were fit to the additive model λij=αi+βj+εij, where εij denotes error that is made as small as possible in the fitting process. Using least squares to minimize the function [formula] over all compounds having experimental data yields coefficient estimates αi for each A group and βj for each B group. One set of coefficient estimates is obtained for the excitation values and another set is obtained for the emission values. To predict the wavelength of a new compound formed from A and B groups i* and j* the sum αi*+βj* is used.
In some embodiments, for both the spectral and localization analysis, cross-validation was used to obtain unbiased estimates of the prediction performance. Each compound was held out in sequence, and the coefficients αi and βj were fit to the remaining compounds. These values were then used to form a prediction for the held out compound, then the predicted and experimental values were compared to obtain a measure of the accuracy of prediction. Since the wavelength values are on a continuous scale, the predicted values were compared to the experimental values using Pearson correlation coefficients. The localization values are dichotomous, so the proportion of matching predictions was used to compare predicted and experimental localization values.
In the case of `O=Cc1ccccn1` [A group 40], the “αi^em” value came out at 64.8 nm.
Turning to `O=Cc1ccc2ccc3cccc4ccc1c2c34` [A group 41], the “αi^em” value is given as 46.9 nm.

Still in this data set, the particulars now being: influence of A group on peak excitation wavelength, A group 1 as baseline.
On to `O=Cc1ccccn1` [A group 40], for which the “αi^ex” value was −18.1 nm.
For `O=Cc1ccc2ccc3cccc4ccc1c2c34` [A group 41], the “αi^ex” value worked out at 26.1 nm.

For the origin of these results see patent US20070111251A1, “Chemical address tags” (priority 2003, published 2007).
